In one data set the target is mAC5 (Homo sapiens, UniProt O95622). Description: mAC assay, HEK293 cells stably expressing AC5. Format: cell-based. As to conditions: for % of control AC5: 30 µM, HEK293-AC5, stimulated with 300 nM forskolin, ± S.E.M.
The next data set concerns the target mAC2 (Homo sapiens, UniProt Q08462). Kind of data set: mAC assay, HEK293 cells stably expressing AC2. It counts as cell-based. As to conditions: for % of control AC2 / effect on selectively-stimulated cAMP response at AC2 (in words): 30 µM; for % of control AC2: HEK293-AC2, stimulated with 100 nM PMA, ± S.E.M.
The test system of another data set is J774A.1 cells. Description: Effect on the viability of J774A.1 cells. It counts as cell-based, murine.
The next data set deals with B. pertussis ACT (Bordetella pertussis, UniProt P0DKX7). Description: cell-based. Format: cell-based.
B. pertussis ACT, sequence (P0DKX7 whole entry, looked up): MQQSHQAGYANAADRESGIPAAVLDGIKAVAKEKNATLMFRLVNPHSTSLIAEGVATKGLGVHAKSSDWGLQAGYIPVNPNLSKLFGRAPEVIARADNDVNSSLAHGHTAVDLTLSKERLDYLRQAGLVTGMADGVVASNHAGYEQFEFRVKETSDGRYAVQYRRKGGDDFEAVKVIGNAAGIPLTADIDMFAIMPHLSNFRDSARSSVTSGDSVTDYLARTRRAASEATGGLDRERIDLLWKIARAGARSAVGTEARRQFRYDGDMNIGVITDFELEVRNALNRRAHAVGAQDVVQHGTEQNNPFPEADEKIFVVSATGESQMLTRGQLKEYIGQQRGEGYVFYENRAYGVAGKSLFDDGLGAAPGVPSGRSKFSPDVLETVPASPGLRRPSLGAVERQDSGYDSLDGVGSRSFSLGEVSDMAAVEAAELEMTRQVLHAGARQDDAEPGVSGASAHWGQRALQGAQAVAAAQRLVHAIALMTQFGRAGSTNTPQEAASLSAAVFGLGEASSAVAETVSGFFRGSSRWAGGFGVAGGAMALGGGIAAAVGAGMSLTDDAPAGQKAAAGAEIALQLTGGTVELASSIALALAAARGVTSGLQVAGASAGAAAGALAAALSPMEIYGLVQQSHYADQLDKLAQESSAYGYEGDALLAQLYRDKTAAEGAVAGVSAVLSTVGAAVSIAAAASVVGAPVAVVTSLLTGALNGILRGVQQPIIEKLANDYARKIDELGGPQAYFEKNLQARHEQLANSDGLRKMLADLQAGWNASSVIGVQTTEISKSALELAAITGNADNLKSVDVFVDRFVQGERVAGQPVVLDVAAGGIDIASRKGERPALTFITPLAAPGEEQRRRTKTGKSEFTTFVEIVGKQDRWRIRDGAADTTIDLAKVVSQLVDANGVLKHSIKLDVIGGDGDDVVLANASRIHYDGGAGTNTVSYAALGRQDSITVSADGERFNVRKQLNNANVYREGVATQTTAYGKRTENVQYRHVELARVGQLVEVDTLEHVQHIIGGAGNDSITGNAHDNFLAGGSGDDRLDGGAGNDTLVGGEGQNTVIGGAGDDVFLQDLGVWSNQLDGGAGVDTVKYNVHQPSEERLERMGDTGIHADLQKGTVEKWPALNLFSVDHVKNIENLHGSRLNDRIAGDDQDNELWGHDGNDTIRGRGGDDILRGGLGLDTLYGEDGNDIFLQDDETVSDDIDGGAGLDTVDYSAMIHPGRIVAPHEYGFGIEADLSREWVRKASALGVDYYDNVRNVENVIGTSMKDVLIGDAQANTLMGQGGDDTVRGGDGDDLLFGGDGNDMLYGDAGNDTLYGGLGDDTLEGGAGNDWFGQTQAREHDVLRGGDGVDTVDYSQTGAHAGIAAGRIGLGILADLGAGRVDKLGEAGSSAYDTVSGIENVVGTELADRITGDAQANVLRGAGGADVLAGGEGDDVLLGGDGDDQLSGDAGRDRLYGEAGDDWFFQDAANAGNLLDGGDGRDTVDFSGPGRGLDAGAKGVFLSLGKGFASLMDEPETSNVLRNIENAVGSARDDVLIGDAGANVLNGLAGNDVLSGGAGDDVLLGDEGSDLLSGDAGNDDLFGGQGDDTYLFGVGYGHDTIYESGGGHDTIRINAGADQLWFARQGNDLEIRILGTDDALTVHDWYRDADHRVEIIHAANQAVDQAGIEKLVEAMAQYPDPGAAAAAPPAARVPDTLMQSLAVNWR
The target of the next data set is mAC1 (Homo sapiens, UniProt Q08828). Kind of data set: mAC assay, HEK293 cells stably expressing AC1. It counts as cell-based. As to conditions: for % of control AC1 / effect on selectively-stimulated cAMP response at AC1 (in words): 30 µM; for % of control AC1: HEK293-AC1, stimulated with 3 µM A23187, ± S.E.M.
mAC1, sequence (Q08828 whole entry): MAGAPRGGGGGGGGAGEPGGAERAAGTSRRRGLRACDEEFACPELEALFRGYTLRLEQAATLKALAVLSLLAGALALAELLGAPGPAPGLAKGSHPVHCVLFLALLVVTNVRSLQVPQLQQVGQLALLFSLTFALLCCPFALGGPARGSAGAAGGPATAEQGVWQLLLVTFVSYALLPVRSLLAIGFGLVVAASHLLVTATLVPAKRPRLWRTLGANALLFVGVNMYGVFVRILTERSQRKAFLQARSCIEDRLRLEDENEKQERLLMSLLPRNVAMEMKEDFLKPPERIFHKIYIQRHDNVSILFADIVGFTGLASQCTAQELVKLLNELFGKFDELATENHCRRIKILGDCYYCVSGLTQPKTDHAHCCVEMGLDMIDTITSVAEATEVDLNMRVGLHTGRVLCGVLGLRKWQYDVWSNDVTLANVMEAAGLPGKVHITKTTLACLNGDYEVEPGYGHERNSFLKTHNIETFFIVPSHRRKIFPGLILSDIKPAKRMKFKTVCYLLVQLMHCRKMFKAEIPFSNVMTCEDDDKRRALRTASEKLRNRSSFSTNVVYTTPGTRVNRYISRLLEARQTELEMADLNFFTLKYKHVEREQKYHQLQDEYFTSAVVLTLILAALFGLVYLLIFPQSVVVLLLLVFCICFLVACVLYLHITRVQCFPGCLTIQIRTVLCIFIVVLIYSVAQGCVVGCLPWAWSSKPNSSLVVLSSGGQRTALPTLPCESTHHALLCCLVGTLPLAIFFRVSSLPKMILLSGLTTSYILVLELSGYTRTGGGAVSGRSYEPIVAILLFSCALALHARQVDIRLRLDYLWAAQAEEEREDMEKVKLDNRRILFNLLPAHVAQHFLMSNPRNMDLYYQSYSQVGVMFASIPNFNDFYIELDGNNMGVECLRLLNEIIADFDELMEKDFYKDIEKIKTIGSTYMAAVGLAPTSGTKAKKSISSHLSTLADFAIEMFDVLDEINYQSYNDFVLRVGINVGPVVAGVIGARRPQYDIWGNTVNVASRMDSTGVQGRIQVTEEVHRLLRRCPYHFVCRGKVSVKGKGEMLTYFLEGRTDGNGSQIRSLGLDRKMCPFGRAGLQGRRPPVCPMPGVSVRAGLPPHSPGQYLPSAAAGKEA
The next data set addresses edema factor (EF) (Bacillus anthracis, UniProt P40136). Kind of data set: biochemical.
Setting [1] is: read-out: IC50 ACT inhibition in J774A.1 cells.

Here are results for nine compounds from PMC5198786 (ChemMedChem, 2016).

Several values for one entry are separate records, joined by “and”; a condition that tells them apart may be missing. Equal values may be shown once. Entries after “also recorded” stand apart in the source; their conditions may differ. Read-outs that look alike come from different tables or passages of the source.

mAC2, sequence (Q08462 whole entry): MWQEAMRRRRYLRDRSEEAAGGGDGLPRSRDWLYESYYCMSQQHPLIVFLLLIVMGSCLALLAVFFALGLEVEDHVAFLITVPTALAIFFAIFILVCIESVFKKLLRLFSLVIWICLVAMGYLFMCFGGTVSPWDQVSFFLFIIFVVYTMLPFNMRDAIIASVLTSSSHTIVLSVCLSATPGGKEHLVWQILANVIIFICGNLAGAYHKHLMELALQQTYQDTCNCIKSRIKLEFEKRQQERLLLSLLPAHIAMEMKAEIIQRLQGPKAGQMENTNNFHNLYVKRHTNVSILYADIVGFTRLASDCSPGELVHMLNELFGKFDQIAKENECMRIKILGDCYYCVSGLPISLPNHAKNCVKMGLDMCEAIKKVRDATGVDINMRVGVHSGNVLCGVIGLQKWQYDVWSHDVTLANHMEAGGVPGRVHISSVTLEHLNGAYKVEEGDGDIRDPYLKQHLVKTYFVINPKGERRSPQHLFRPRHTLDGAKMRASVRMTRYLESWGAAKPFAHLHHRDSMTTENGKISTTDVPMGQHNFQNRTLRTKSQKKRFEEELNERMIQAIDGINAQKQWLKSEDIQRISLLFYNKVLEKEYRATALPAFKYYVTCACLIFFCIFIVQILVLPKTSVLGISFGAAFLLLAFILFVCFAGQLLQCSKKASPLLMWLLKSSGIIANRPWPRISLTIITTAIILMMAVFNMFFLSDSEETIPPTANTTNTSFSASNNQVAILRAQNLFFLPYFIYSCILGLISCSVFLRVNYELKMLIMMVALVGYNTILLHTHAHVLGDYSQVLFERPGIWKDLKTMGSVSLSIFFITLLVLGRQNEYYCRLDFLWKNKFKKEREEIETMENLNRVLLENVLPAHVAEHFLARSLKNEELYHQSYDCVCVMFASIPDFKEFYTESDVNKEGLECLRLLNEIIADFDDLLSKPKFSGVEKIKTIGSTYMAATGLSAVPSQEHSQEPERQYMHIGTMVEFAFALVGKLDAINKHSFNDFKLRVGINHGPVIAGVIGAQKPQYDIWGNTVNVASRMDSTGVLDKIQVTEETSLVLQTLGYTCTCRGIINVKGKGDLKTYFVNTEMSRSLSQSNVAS
edema factor (EF), sequence (P40136 whole entry, looked up): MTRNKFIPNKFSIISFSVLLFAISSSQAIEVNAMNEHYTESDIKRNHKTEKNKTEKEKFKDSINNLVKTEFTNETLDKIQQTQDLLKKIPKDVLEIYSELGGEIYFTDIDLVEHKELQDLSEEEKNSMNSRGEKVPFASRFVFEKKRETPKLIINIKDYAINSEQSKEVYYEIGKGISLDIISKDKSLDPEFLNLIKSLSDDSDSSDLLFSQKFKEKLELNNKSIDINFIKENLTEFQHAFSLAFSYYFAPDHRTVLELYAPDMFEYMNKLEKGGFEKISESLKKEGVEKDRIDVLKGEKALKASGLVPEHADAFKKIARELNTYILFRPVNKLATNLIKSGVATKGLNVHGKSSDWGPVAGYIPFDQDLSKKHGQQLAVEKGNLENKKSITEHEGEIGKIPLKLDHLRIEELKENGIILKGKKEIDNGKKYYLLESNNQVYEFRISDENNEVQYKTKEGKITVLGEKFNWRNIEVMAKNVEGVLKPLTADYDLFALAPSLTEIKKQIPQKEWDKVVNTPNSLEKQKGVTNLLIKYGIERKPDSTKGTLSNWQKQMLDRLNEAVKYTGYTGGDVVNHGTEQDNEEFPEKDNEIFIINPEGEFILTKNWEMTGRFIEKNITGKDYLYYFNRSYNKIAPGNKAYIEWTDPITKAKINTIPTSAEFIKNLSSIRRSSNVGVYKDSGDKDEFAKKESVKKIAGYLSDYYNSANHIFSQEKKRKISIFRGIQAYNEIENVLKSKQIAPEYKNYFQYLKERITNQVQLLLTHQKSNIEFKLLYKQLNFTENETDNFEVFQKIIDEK

For `Nc1ncnc2c1ncn2C1CCCO1` (stereo not shown) [SQ22536, reference compound], the “% of control AC5” value on mAC5 stood at 64±1%. Moreover, the “% of control AC2” value on mAC2 amounted to 84±5%.

The IC50 is the concentration at which inhibition is half-maximal. Take `CC(C)OC(=O)[C@H](Cc1ccccc1)NP(=O)(COCC(COC(=O)c1cc(Cl)ccc1N)Cn1cnc2c(N)ncnc21)N[C@@H](Cc1ccccc1)C(=O)OC(C)C` (stereo partly drawn) [Compound 26, Bis(L-phenylalanineisopropyl ester) prodrug of ((3-(6-amino-9H-purin-9yl)-2-(5-chloroanthraniloyloxymethyl)propoxy)methyl)phosphonic acid]: the “% of control AC5” value on mAC5 turned out to be 97±11%. Further, the “cytotoxic effect in J774A.1 cells” value in the data set on J774A.1 cells (10 µM for 5h) is recorded as “no cytotoxic effect; also recorded: no observed cytotoxic effects”. Besides, the Viability with J774A.1 cells (10 µM, 5 h, versus untreated control) stood at 110%. For the same compound, the “% of control AC2” value on mAC2 is given as 149±27%. The IC50 at B. pertussis ACT (setting [1]) was 12 µM and 12.1 µM. Moreover, on mAC1, the “% of control AC1” value is 94±10%.

As to `Nc1ccc(Cl)cc1C(=O)OCC(CO)Cn1cnc2c(N)ncnc21` (stereo not shown) [Compound 20, 9-(3-O-(5-Chloroanthraniloyl)-2-(hydroxymethyl)propyl)adenine], at mAC5, the “% of control AC5” value was found to be 114±18%. Further, at mAC2, the “% of control AC2” value was determined as 146±10%. Also, the IC50 on B. pertussis ACT (setting [1]) is over 15 µM. Moreover, the “% of control AC1” value at mAC1 amounted to 122±15%.

Consider `CC(C)OC(=O)[C@H](Cc1ccccc1)NP(=O)(COCC(Cn1cnc2c(N)ncnc21)NC(=O)c1cc(Cl)ccc1N)N[C@@H](Cc1ccccc1)C(=O)OC(C)C` (stereo partly drawn) [Compound 14, Bis(L-phenylalanineisopropyl ester) prodrug of ((3-(6-amino-9H-purin-9yl)-2-N-(5-chloroanthraniloyl)propoxy)methyl)phosphonic acid], for which the “% of control AC5” value on mAC5 worked out at 121±23%. Also, on mAC2, the “effect on selectively-stimulated cAMP response at AC2 (in words)” value is reported as “slightly potentiated” and the “% of control AC2” value came to 172±34%. Besides, the IC50 on B. pertussis ACT (setting [1]) is over 15 µM. Further, on mAC1, the “effect on selectively-stimulated cAMP response at AC1 (in words)” value is given as “slightly potentiated” and the “% of control AC1” value came out at 118±12%.

On to `Nc1ccc(Cl)cc1C(=O)NC(CO)Cn1cnc2c(N)ncnc21` (stereo not shown) [Compound 6], for which the “% of control AC5” value at mAC5 turned out to be 98±14%. Further, the “% of control AC2” value on mAC2 amounted to 161±16%. The half-maximal inhibitory concentration (IC50) on B. pertussis ACT (setting [1]) is over 15 µM. At mAC1, the “% of control AC1” value is given as 163±34%.

`CC(C)OC(=O)[C@H](Cc1ccccc1)NP(=O)(COCC(CNC(=O)c1cc(Cl)ccc1N)Cn1cnc2c(N)ncnc21)N[C@@H](Cc1ccccc1)C(=O)OC(C)C` (stereo partly drawn) [Compound 29, Bis(L-phenylalanineisopropyl ester) prodrug of ((3-(6-amino-9H-purin-9yl)-2-(5-chloroanthraniloylaminomethyl)propoxy)methyl)phosphonic acid]: the “% of control AC5” value at mAC5 is recorded as 118±18%. Also, at mAC2, the “effect on selectively-stimulated cAMP response at AC2 (in words)” value is on record as “slightly potentiated” and the “% of control AC2” value stood at 193±48%. On B. pertussis ACT (setting [1]), the IC50 was over 15 µM. For the same compound, on mAC1, the “effect on selectively-stimulated cAMP response at AC1 (in words)” value was “slightly potentiated” and the “% of control AC1” value was 189±15%.

With `Nc1ccc(Cl)cc1C(=O)NCC(CO)Cn1cnc2c(N)ncnc21` (stereo not shown) [Compound 22, 9-(3-N-(5-Chloroanthraniloyl)-2-(hydroxymethyl)propyl)adenine], on mAC5, the “% of control AC5” value turned out to be 101±5%. Further, the “% of control AC2” value at mAC2 was found to be 149±26%. Also, the IC50 on B. pertussis ACT (setting [1]) was over 15 µM. Also, the “% of control AC1” value at mAC1 was determined as 156±23%.

Turning to `Nc1ncnc2c1ncn2CC(CO)NC(=O)Nc1ccc(Cl)cc1C(=O)O` (stereo not shown) [Compound 7, 2-(3-(1-(6-amino-9H-purin-9-yl)-3-hydroxypropan-2-yl)ureido)-5-chlorobenzoic acid], the remaining activity at 30 µM was found to be 110 ± 16% on mAC5 (HEK293, read-out: % of control AC5); 164 ± 23% on mAC2 (HEK293, read-out: % of control AC2); 178 ± 31% on mAC1 (HEK293, read-out: % of control AC1). In addition, the IC50 at B. pertussis ACT was over 15 µM.

`Nc1ncnc2c1ncn2CCOCP(=O)(O)OP(=O)(O)OP(=O)(O)O` [PMEApp, Adefovir diphosphate]: on edema factor (EF), the midpoint of inhibition, the IC50, lay at 0.0115 ± 0.0026 µM.
